Experimental data taken from patent publication US20070167452A1, “Therapeutic amide derivatives” (PFIZER, INC., priority 2004, published 2007).
Where two headings read alike, the source gives them in different places.

How the values were obtained:
Human HERG [1] = target: T1, Human HERG (Homo sapiens, UniProt Q12809)
Method: (§1) Human HERG transfected HEK293S cells were prepared and grown in-house. The collected cells were suspended in 50 mM Tris-HCl (pH 7.4 at 4° C.) and homogenized using a hand held Polytron PT 1200 disruptor set at full power for 20 sec on ice. The homogenates were centrifuged at 48,000×g at 4° C. for 20 min. The pellets were then resuspended, homogenized, and centrifuged once more in the same manner. The final pellets were resuspended in an appropriate volume of 50 mM Tris-HCl, 10 mM KCl, 1 mM MgCl2 (pH 7.4 at 4° C.), homogenized, aliquoted and stored at −80° C. until use. An aliquot of membrane fractions was used for protein concentration determination using BCA protein assay kit (PIERCE) and ARVOsx plate reader (Wallac).
(§2) Binding assays were conducted in a total volume of 200 μl in 96-well plates. Twenty μl of test compounds were incubated with 20 μl of [^3H]-dofetilide (Amersham, final 5 nM) and 160 μl of membrane homogenate (25 μg protein) for 60 minutes at room temperature. Nonspecific binding was determined by 10 μM dofetilide at the final concentration. Incubation was terminated by rapid vacuum filtration over 0.5% presoaked GF/B Betaplate filter using Skatron cell harvester with 50 mM Tris-HCl, 10 mM KCl, 1 mM MgCl2, pH 7.4 at 4° C. The filters were dried, put into sample bags and filled with Betaplate Scint. Radioactivity bound to filter was counted with Wallac Betaplate counter.

NR2B receptor = target: T2, NR2B receptor (Rattus norvegicus, UniProt P35439+Q00960); assay: NR2B Binding Assay; settings: forebrain P2 membranes of male CD rats; 5 nM [3H] NR2B ligand
T2 construct: Membranes were prepared by homogenization of forebrain of male CD rats; from tissue; host or cells: forebrain of male CD rats (P2 membrane)

HERG potassium channel = HERG potassium channel (Homo sapiens, UniProt Q12809); assay: Inhibition at HERG potassium channel (prior-art compound); settings: background statement on prior-art compound of WO 0208928
Human HERG [2] = target: T1, Human HERG; assay: Human Dofetilide Binding Assay
Method: as §1, §2

T1 sequence (Q12809 whole entry): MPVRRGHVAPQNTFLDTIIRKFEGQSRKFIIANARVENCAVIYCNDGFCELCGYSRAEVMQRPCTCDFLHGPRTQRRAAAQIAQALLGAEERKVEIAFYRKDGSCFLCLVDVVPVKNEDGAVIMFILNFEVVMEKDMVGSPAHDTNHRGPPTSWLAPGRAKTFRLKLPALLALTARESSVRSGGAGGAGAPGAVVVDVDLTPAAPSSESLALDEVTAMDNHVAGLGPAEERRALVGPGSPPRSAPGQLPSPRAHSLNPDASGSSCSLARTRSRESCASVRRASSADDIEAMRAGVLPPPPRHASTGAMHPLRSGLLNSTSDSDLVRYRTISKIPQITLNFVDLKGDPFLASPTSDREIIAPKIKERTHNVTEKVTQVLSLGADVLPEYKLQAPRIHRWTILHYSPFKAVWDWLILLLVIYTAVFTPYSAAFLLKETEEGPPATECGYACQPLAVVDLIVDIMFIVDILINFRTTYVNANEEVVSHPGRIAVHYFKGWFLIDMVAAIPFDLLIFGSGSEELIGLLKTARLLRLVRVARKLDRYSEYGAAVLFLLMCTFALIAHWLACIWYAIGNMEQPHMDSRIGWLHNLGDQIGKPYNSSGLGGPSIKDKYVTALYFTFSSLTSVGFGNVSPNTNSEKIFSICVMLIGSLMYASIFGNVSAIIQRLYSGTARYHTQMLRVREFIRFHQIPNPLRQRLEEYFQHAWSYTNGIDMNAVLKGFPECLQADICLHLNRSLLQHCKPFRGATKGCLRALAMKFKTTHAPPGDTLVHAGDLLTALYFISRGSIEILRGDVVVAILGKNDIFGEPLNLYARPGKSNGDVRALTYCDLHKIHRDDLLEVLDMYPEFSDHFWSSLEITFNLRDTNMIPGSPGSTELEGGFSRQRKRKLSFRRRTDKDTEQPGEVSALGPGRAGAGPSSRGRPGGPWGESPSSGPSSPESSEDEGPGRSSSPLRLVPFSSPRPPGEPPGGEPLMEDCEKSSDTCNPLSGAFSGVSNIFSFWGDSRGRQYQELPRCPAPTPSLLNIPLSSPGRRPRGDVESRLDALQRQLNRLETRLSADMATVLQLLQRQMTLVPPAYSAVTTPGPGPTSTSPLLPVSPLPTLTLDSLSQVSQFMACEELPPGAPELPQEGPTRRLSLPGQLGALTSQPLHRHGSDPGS
T2 sequence (Q00960 27-1482, other chains not shown): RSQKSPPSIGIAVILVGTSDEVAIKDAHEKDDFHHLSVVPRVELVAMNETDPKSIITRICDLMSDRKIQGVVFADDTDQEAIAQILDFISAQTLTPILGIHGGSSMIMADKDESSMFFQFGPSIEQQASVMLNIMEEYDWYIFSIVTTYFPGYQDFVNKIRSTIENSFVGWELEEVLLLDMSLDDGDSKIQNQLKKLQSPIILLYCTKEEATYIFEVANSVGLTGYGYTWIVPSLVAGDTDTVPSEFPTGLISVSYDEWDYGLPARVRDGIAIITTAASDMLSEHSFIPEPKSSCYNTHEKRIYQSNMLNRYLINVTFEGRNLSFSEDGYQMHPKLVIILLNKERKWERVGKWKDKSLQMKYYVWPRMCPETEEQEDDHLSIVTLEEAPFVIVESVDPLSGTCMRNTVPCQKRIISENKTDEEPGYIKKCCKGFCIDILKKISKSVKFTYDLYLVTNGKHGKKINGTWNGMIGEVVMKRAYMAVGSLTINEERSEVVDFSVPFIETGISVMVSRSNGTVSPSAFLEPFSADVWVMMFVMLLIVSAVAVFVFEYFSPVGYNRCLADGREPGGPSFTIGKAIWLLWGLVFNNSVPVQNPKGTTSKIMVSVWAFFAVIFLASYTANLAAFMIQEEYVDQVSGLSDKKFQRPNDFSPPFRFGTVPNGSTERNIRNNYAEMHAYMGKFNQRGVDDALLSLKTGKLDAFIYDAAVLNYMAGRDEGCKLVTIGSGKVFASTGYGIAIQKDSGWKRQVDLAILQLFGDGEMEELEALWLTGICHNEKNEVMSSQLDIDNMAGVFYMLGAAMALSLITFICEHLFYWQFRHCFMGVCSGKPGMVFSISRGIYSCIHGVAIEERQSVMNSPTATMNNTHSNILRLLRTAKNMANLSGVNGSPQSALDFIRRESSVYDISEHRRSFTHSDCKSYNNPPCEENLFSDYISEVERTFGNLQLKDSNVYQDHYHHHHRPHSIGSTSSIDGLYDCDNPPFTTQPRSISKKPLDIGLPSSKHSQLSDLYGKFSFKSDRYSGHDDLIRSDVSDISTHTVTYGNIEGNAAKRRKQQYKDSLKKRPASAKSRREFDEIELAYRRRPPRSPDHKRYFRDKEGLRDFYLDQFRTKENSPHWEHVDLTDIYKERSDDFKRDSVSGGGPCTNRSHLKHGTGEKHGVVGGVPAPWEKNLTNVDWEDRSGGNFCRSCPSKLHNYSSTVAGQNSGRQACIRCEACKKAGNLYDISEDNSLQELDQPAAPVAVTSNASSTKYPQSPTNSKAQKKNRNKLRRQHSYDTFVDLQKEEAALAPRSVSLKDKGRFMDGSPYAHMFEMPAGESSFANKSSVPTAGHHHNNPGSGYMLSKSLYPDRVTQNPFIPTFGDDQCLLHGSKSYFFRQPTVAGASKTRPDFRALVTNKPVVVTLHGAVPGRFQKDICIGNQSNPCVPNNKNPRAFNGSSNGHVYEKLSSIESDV
HERG potassium channel, sequence (Q12809 whole entry): as the sequence (Q12809 whole entry) above

For `O=C(NCC1(O)CCC(COCc2cccc(F)c2)CC1)c1ccc(O)c(F)c1` (stereo not drawn) [Example 50, 3-Fluoro-N-[(trans-4-{[(3-fluorobenzyl)oxy]methyl}-1-1-hydroxycyclohexyl)methyl]-hydroxybenzamide], the IC50 (Human HERG [1]) was > 100000 nM and the IC50 (NR2B receptor) was 27.5 nM.
With `O=C(NCC1CCN(CCCc2ccccc2)CC1)c1ccc(O)cc1` [Compound (i)] the IC50 (HERG potassium channel) was < 3000 nM.
With `O=C(NC[C@H]1CC[C@@H](OCCc2ccccc2)CC1)c1ccc(O)nc1` [Example 71, 6-Hydroxy-N-{[cis-4-(2-phenethoxy)cyclohexyl]methyl}nicotinamide] the IC50 (Human HERG [1]) was > 100000 nM and the IC50 (NR2B receptor) was 7.1 nM.
In the case of `Cc1ccc(OC[C@H]2CC[C@@](O)(CNC(=O)c3ccc(O)cc3)CC2)nc1` [Example 67, 4-Hydroxy-N-[(trans-1-hydroxy-4-{[(5-methylpyridin-2-yl)oxy]methyl}cyclohexyl)methyl]benzamide], the IC50 (NR2B receptor) is reported as 16.9 nM, the IC50 (Human HERG [2]) is reported as > 30000 nM and the melting point is reported as 196.2 °C.
